# Patent publication US20130158132A1, “Formulation Solution Adapted To Prolong Plasma Times Of Drugs In Mammals Including Humans” (priority 2011, published 2013)
# Experiments:
# [1] = Decoquinate concentration in mouse plasma and liver, with and without prolongation solution; format: in vivo; set-up: concentration of the drug in plasma / concentration of the drug in liver: unit not given here; conditions: mice; for concentration of the drug in liver / concentration of the drug in plasma: 0.5 ml injected
# Experimental: (§1) The following examples used laboratory rats and mice.
# Decoquinate solution was mixed with two solutions: one with the prolongation solution of Example 1 and one without the prolongation solution. Each solution contained an identical and normal dosage of the drug. In both cases, 0.5 ml of solution was injected into mice of approximately identical weight. The concentration of the drug in plasma and liver was chected by high performance then layer chromatography in mouse liver and plasma.
# [2] = Glipizide serum level in rats after one-time administration; format: in vivo; conditions: rat, other: injected, about 0.25 mg in 3 ml prolongation solution of Example 1, injected
# Experimental: as §1
# Serum testing was conducted after one-time initial administration.
# [3] = single 5 mg dose; cited from earlier work
# [4] = after 24 hours; cited from earlier work
# in vivo = conditions: rat, Quinine serum level
# [5] = rat, in vivo, 24 h
# [6] = Rifampicin serum level in rats after one-time administration; format: in vivo; conditions: for concentration at 14 h / concentration at 32 h: serum
# Experimental: as §1
# Serum testing was conducted after one-time initial administration to rats. The Rifampicin level remained:
# Control test using water alone on 8 mg/rat. […] Thus, the prolongation solution is effective at reduced drug administration levels.
# [7] = human, single 600 mg dose; cited from earlier work
# [8] = single 2.0 gram dose, cited from earlier work
# [9] = NE-No Prolongation Solution, 0.5 hours
# [10] = NE-No Prolongation Solution, 1 hour
# [11] = NE-No Prolongation Solution, 2 hours
# [12] = NE-No Prolongation Solution, 4 hours
# [13] = NE-No Prolongation Solution, 8 hours
# [14] = NE-No Prolongation Solution, 24 hours
# [15] = PF-Prolongation Solution of Example 1, 0.5 hours
# [16] = PF-Prolongation Solution of Example 1, 1 hour
# [17] = PF-Prolongation Solution of Example 1, 2 hours
# [18] = PF-Prolongation Solution of Example 1, 4 hours
# [19] = PF-Prolongation Solution of Example 1, 8 hours
# [20] = PF-Prolongation Solution of Example 1, 24 hours
# [21] = rat, about 18 mg in 3 ml prolongation solution of Example 1, one-time administration
# [22] = about 8 mg/rat with prolongation solution
smiles,measurement,setting,value
CCCCCCCCCCOc1cc2c(O)c(C(=O)OCC)cnc2cc1OCC [Decoquinate],concentration of the drug in liver,[1]; [9],313860
same,concentration of the drug in plasma,[1]; [9],25565
same,concentration of the drug in liver,[1]; [10],430820
same,concentration of the drug in plasma,[1]; [10],49911
same,concentration of the drug in liver,[1]; [11],317950
same,concentration of the drug in plasma,[1]; [11],43941
same,concentration of the drug in liver,[1]; [12],323180
same,concentration of the drug in plasma,[1]; [12],35427
same,concentration of the drug in liver,[1]; [13],177470
same,concentration of the drug in plasma,[1]; [13],25131
same,concentration of the drug in liver,[1]; [14],7014
same,concentration of the drug in plasma,[1]; [14],697
same,concentration of the drug in liver,[1]; [15],149675
same,concentration of the drug in plasma,[1]; [15],15213
same,concentration of the drug in liver,[1]; [16],223565
same,concentration of the drug in plasma,[1]; [16],24638
same,concentration of the drug in liver,[1]; [17],191725
same,concentration of the drug in plasma,[1]; [17],27350
same,concentration of the drug in liver,[1]; [18],219615
same,concentration of the drug in plasma,[1]; [18],29213
same,concentration of the drug in liver,[1]; [19],181015
same,concentration of the drug in plasma,[1]; [19],27882
same,concentration of the drug in liver,[1]; [20],5549
same,concentration of the drug in plasma,[1]; [20],457
same,drop of Decoquinate level between 1 and 8 hours in plasma,[1]; no prolongation solution,50%
same,drop of Decoquinate level between 1 and 8 hours in liver,"[1]; no prolongation solution, compared with the 50% drop in plasma",almost as much
same,change in the level of Decoquinate between 1 and 8 hours,[1]; prolongation solution used,relatively little change
same,change of concentration of drug in plasma and liver for eight hours,"[1]; using the prolongation solution, compared to control",did not change
Cc1cnc(C(=O)NCCc2ccc(S(=O)(=O)NC(=O)NC3CCCCC3)cc2)cn1 [Glipizide],concentration at 26 h,[2]; 26 hours,570 ng/mL
same,concentration at 52 h,[2]; 52 hours,1400 ng/mL
same,Peak serum level of glipizide,[3],0.1 to 0.5 µg/mL
same,time of peak serum level post dose,[3],1.6 h
C=C[C@H]1C[N@@]2CC[C@H]1C[C@H]2[C@H](O)c1ccnc2ccc(OC)cc12 [Quinine],plasma level after termination of quinine therapy,[4],barely detectable
same,concentration at 45 min,in vivo,4600 ng/mL
same,concentration at 4 h,in vivo,3000 ng/mL
same,concentration at 9 h,in vivo,1800 ng/mL
same,concentration at 13 h,in vivo,1600 ng/mL
same,concentration at 15 h,in vivo,2100 ng/mL
same,concentration at 16 h,in vivo,230 ng/mL
same,concentration at 24 h,in vivo,1400 ng/mL
same,Quinine serum level,[5],2400 ng/mL
CO[C@H]1/C=C/O[C@@]2(C)Oc3c(C)c(O)c4c(O)c(c(/C=N/N5CCN(C)CC5)c(O)c4c3C2=O)NC(=O)/C(C)=C\C=C\[C@H](C)[C@H](O)[C@@H](C)[C@@H](O)[C@@H](C)[C@H](OC(C)=O)[C@@H]1C [Rifampicin],Rifampicin serum level,"[6]; control using water alone, 8 mg/rat, after 14 hours",not being detected
same,concentration at 14 h,[6]; [21],19000 ng/mL
same,concentration at 32 h,[6]; [21],3500 ng/mL
same,concentration at 14 h,[6]; [22],14000 ng/mL
same,concentration at 32 h,[6]; [22],8500 ng/mL
same,Peak plasma levels of Rifampicin,[7],3 to 13 µg/mL
same,time of peak plasma level post dose,[7],approximately 1.8 hours
Cc1noc(NS(=O)(=O)c2ccc(N)cc2)c1C [sulfisoxazole],mean time of peak plasma concentration,[8],2.5 h
same,original dose excreted in the urine,[8]; within 48 hours,About 97%
